{
  "source": "PubChem BioAssay AID1259407",
  "about": "(Chemical Carcinogenesis Research Information System (CCRIS), 2018)",
  "tested_on": "CCRIS mutagenicity, Ames/micronucleus/aberration tests",
  "assay": "CCRIS mutagenicity studies",
  "key": {"[1]": {"conditions": "Test System: AMES SALMONELLA TYPHIMURIUM, Strain/Indicator: TA98, Metabolic Activation: NONE, Method: PREINCUBATION"}, "[2]": {"conditions": "Test System: AMES SALMONELLA TYPHIMURIUM, Strain/Indicator: TA100, Metabolic Activation: NONE, Method: PREINCUBATION"}, "[3]": {"conditions": "Test System: MOUSE LYMPHOMA, Strain/Indicator: L5178Y (TK+/TK-), Metabolic Activation: NONE, Method: SUSPENSION/PLATE"}},
  "note": "Active and inactive are the calls of the source. No rule for the calls is given here.",
  "data": [
    {"smiles": "CCN(Cc1cccc(S(=O)(=O)[O-])c1)c1ccc(C(=C2C=CC(=[N+](C)C)C=C2)c2ccc(N(CC)Cc3cccc(S(=O)(=O)O)c3)cc2)cc1", "values": [
      {"measurement": "mutagenic call", "setting": "Test System: AMES SALMONELLA TYPHIMURIUM, Strain/Indicator: TA98, Metabolic Activation: HAMSTER, LIVER, S-9, AROCLOR 1254 (30%), Method: PREINCUBATION", "result": "active; positive"},
      {"measurement": "mutagenic call", "setting": "[1]", "result": "inactive; negative"},
      {"measurement": "mutagenic call", "setting": "Test System: AMES SALMONELLA TYPHIMURIUM, Strain/Indicator: TA98, Metabolic Activation: RAT, LIVER, S-9, AROCLOR 1254 (30%), Method: PREINCUBATION", "result": "active; positive"},
      {"measurement": "mutagenic call", "setting": "Test System: AMES SALMONELLA TYPHIMURIUM, Strain/Indicator: TA98, Metabolic Activation: RAT, LIVER, S-9, KC500 OR PHENOBARBITAL, Method: LIQUID SUSPENSION", "result": "active; positive"},
      {"measurement": "mutagenic call", "setting": "Test System: AMES SALMONELLA TYPHIMURIUM, Strain/Indicator: TA100, Metabolic Activation: HAMSTER, LIVER, S-9, AROCLOR 1254 (30%), Method: PREINCUBATION", "result": "inactive; negative"},
      {"measurement": "mutagenic call", "setting": "[2]", "result": "inactive; negative"},
      {"measurement": "mutagenic call", "setting": "Test System: AMES SALMONELLA TYPHIMURIUM, Strain/Indicator: TA100, Metabolic Activation: RAT, LIVER, S-9, AROCLOR 1254 (30%), Method: PREINCUBATION", "result": "inactive; negative"},
      {"measurement": "mutagenic call", "setting": "Test System: Mouse lymphoma, Strain/Indicator: L5178Y (tk+/tk-), Metabolic Activation: None, Method: Suspension/plate", "result": "active; positive"},
      {"measurement": "mutagenic call", "setting": "Test System: Mouse lymphoma, Strain/Indicator: L5178Y (tk+/tk-), Metabolic Activation: Rat,Liver, S-9, Aroclor 1254, Method: Suspension/plate", "result": "inactive; negative"}
    ]},
    {"smiles": "Cc1cc(O)ccc1N", "values": [
      {"measurement": "mutagenic call", "setting": "[3]", "result": "active; positive. reevaluation of results: equivocal"},
      {"measurement": "mutagenic call", "setting": "Test System: MOUSE LYMPHOMA, Strain/Indicator: L5178Y (TK+/TK-), Metabolic Activation: RAT, LIVER, S-9, AROCLOR 1254, Method: SUSPENSION/PLATE", "result": "inactive; negative. reevaluation of results: inconclusive"}
    ]},
    {"smiles": "CC(Br)C(Br)COP(=O)(OCC(Br)C(C)Br)OCC(Br)C(C)Br", "note": "(stereo not given)", "values": [
      {"measurement": "mutagenic call", "setting": "Test System: AMES SALMONELLA TYPHIMURIUM, Strain/Indicator: TA100, Metabolic Activation: RAT, LIVER, MICROSOMES, PHENOBARBITAL, Method: PREINCUBATION", "result": "active; positive"},
      {"measurement": "mutagenic call", "setting": "Test System: AMES SALMONELLA TYPHIMURIUM, Strain/Indicator: TA100, Metabolic Activation: RAT, LIVER, MICROSOMES, Method: PREINCUBATION", "result": "active; positive"}
    ]},
    {"smiles": "CC(=O)N(C)c1ccc(N=Nc2ccc(N(C)C)cc2)cc1", "values": [
      {"measurement": "mutagenic call", "setting": "Test System: AMES SALMONELLA TYPHIMURIUM, Strain/Indicator: TA98, Metabolic Activation: RAT, LIVER, S-9, POLYCHLORINATED BIPHENYLS, Method: PREINCUBATION", "result": "active; positive"},
      {"measurement": "mutagenic call", "setting": "Test System: AMES SALMONELLA TYPHIMURIUM, Strain/Indicator: TA100, Metabolic Activation: RAT, LIVER, S-9, POLYCHLORINATED BIPHENYLS, Method: PREINCUBATION", "result": "active; positive"}
    ]},
    {"smiles": "c1ccncc1", "values": [
      {"measurement": "mutagenic call", "setting": "Test System: AMES SALMONELLA TYPHIMURIUM, Strain/Indicator: TA98, Metabolic Activation: HAMSTER LIVER S-9, AROCLOR 1254, 10%, Method: PREINCUBATION", "result": "inactive; negative"},
      {"measurement": "mutagenic call", "setting": "[1]", "result": "inactive; negative"},
      {"measurement": "mutagenic call", "setting": "Test System: AMES SALMONELLA TYPHIMURIUM, Strain/Indicator: TA98, Metabolic Activation: RAT LIVER S-9, AROCLOR 1254, 10%, Method: PREINCUBATION", "result": "inactive; negative"},
      {"measurement": "mutagenic call", "setting": "Test System: AMES SALMONELLA TYPHIMURIUM, Strain/Indicator: TA98, Metabolic Activation: RAT LIVER S-9, PHENOBARBITAL AND BETA-NAPHTHOFLAVONE, Method: PREINCUBATION", "result": "inactive; negative"},
      {"measurement": "mutagenic call", "setting": "Test System: AMES SALMONELLA TYPHIMURIUM, Strain/Indicator: TA98, Metabolic Activation: RAT, LIVER, S-9, AROCLOR 1254, Method: PREINCUBATION", "result": "inactive; negative"},
      {"measurement": "mutagenic call", "setting": "Test System: AMES SALMONELLA TYPHIMURIUM, Strain/Indicator: TA100, Metabolic Activation: HAMSTER LIVER S-9, AROCLOR 1254, 10%, Method: PREINCUBATION", "result": "inactive; negative"},
      {"measurement": "mutagenic call", "setting": "[2]", "result": "inactive; negative"},
      {"measurement": "mutagenic call", "setting": "Test System: AMES SALMONELLA TYPHIMURIUM, Strain/Indicator: TA100, Metabolic Activation: RAT LIVER S-9, AROCLOR 1254, 10%, Method: PREINCUBATION", "result": "inactive; negative"},
      {"measurement": "mutagenic call", "setting": "Test System: AMES SALMONELLA TYPHIMURIUM, Strain/Indicator: TA100, Metabolic Activation: RAT LIVER S-9, PHENOBARBITAL AND BETA-NAPHTHOFLAVONE, Method: PREINCUBATION", "result": "inactive; negative"},
      {"measurement": "mutagenic call", "setting": "Test System: AMES SALMONELLA TYPHIMURIUM, Strain/Indicator: TA100, Metabolic Activation: RAT, LIVER, S-9, AROCLOR 1254, Method: PREINCUBATION", "result": "inactive; negative"},
      {"measurement": "mutagenic call", "setting": "Test System: AMES SALMONELLA TYPHIMURIUM, Strain/Indicator: TA102, Metabolic Activation: NONE, Method: PREINCUBATION", "result": "inactive; negative"},
      {"measurement": "mutagenic call", "setting": "Test System: AMES SALMONELLA TYPHIMURIUM, Strain/Indicator: TA102, Metabolic Activation: RAT, LIVER, S-9, AROCLOR 1254, Method: PREINCUBATION", "result": "inactive; negative"},
      {"measurement": "mutagenic call", "setting": "Test System: AMES SALMONELLA TYPHIMURIUM, Strain/Indicator: TA1535, Metabolic Activation: HAMSTER LIVER S-9, AROCLOR 1254, 10%, Method: PREINCUBATION", "result": "inactive; negative"},
      {"measurement": "mutagenic call", "setting": "Test System: AMES SALMONELLA TYPHIMURIUM, Strain/Indicator: TA1535, Metabolic Activation: NONE, Method: PREINCUBATION", "result": "inactive; negative"},
      {"measurement": "mutagenic call", "setting": "Test System: AMES SALMONELLA TYPHIMURIUM, Strain/Indicator: TA1535, Metabolic Activation: RAT LIVER S-9, AROCLOR 1254, 10%, Method: PREINCUBATION", "result": "inactive; negative"},
      {"measurement": "mutagenic call", "setting": "Test System: AMES SALMONELLA TYPHIMURIUM, Strain/Indicator: TA1535, Metabolic Activation: RAT LIVER S-9, PHENOBARBITAL AND BETA-NAPHTHOFLAVONE, Method: PREINCUBATION", "result": "inactive; negative"},
      {"measurement": "mutagenic call", "setting": "Test System: AMES SALMONELLA TYPHIMURIUM, Strain/Indicator: TA1537, Metabolic Activation: HAMSTER LIVER S-9, AROCLOR 1254, 10%, Method: PREINCUBATION", "result": "inactive; negative"},
      {"measurement": "mutagenic call", "setting": "Test System: AMES SALMONELLA TYPHIMURIUM, Strain/Indicator: TA1537, Metabolic Activation: NONE, Method: PREINCUBATION", "result": "inactive; negative"},
      {"measurement": "mutagenic call", "setting": "Test System: AMES SALMONELLA TYPHIMURIUM, Strain/Indicator: TA1537, Metabolic Activation: RAT LIVER S-9, AROCLOR 1254, 10%, Method: PREINCUBATION", "result": "inactive; negative"},
      {"measurement": "mutagenic call", "setting": "Test System: AMES SALMONELLA TYPHIMURIUM, Strain/Indicator: TA1537, Metabolic Activation: RAT LIVER S-9, PHENOBARBITAL AND BETA-NAPHTHOFLAVONE, Method: PREINCUBATION", "result": "inactive; negative"},
      {"measurement": "mutagenic call", "setting": "Test System: E.COLI, Strain/Indicator: WP2UVRA, Metabolic Activation: NONE, Method: PREINCUBATION", "result": "inactive; negative"},
      {"measurement": "mutagenic call", "setting": "Test System: E.COLI, Strain/Indicator: WP2UVRA, Metabolic Activation: RAT LIVER S-9, PHENOBARBITAL AND BETA-NAPHTHOFLAVONE, Method: PREINCUBATION", "result": "inactive; negative"},
      {"measurement": "mutagenic call", "setting": "[3]", "result": "inactive; negative"},
      {"measurement": "mutagenic call", "setting": "Test System: MOUSE LYMPHOMA, Strain/Indicator: L5178Y (TK+/TK-), Metabolic Activation: RAT LIVER S-9, AROCLOR 1254, Method: SUSPENSION/PLATE", "result": "inactive; negative"},
      {"measurement": "mutagenic call", "setting": "Test System: UDS MOUSE HEPATOCYTES, Strain/Indicator: THYMIDINE INCORPORATION, Metabolic Activation: NONE, Method: IN VIVO/AUTORADIOGRAPHY", "result": "inactive; negative"}
    ]}
  ]
}
